According to US20240156822A1, “Methods For Treatment of Vitiligo” (Pfizer Inc., priority 2022, published 2024):

Test system: vitiligo
Assay: Clinical study of treatment of vitiligo: central read facial-VASI (primary efficacy endpoint)
Format: in vivo, human
Settings: for Placebo-adjusted LS mean CFB (SE); % CFB in Central F-VASI at Week 24: oral once daily
Procedure: Subjects take the medication set forth herein orally once daily, and typically swallow the tablets whole with approximately one cup of ambient temperature water, without any manipulation or chewing. Dosing regimes include induction dosing of 100 or 200 mg and maintenance dosing of 50 mg, or a 24-week Treatment Period in which participants were treated with ritlecitinib 50 mg, 30 mg, or 10 mg. The induction period is an initial period of treatment of 4 weeks in the initial clinical trial. The maintenance period is 20 weeks Tablets may be taken with or without food. Subject response is evaluated at regular intervals after administration. The Vitiligo Area Scoring Index (VASI) is a validated quantitative scale, initially developed to measure the response of vitiligo to nbUVB treatment, but has since been used to evaluate various therapies for vitiligo. Clinical evaluations of vitiligo in this study include VASI, central read and site assessment of facial-VASI, static Investigator Global Assessment (sIGA), Body Surface Area (BSA) involvement, Vitiligo Extent Score (VES), and dermoscopy. Self-Assessment VES (SA-VES), Vitiligo Specific Quality of Life (VitiQoL), Dermatology Life Quality Index (DLQL), Hospital Anxiety and Depression Scale (HADS), Patient Global Impression of Change Vitiligo (PGIC-V), EQ-5D-5L, Healthcare Resource Utilization (HCRU) and Vitiligo Noticeability Scale (VNS). (b) Facial Vitiligo Area Scoring Index (Facial-VASI)—Central Read The central read facial-VASI are assessed based on the facial photographs taken at the site by a central reader. Clinical Trial Imaging Endpoint Process Standards—Guidance for Industry (April 2018). The central read facial-VASI is calculated using a formula that includes contribution of affected facial surface areas showing all six (6) different depigmentation rates (0.1, 0.25, 0.5, 0.75, 0.9 and 1) with a modified method described by Hamzavi et al. Hamzavi, I., […] The calculation of % affected total body surface area (BSA) is shown below: • Affected Facial Surface Area×4=% Affected Total Body Surface Area. Face is defined as the area from the hairline on top of the forehead to the jawline at the bottom of the cheeks. Facial-VASI (central read) will range from 0.000 to 4.000 by defining the affected Facial Surface Area (expressed as the value between 0.0 to 1.0) being 4% of total Body Surface Area. For example: 25% affected Facial Surface Area (0.25) represents 1% total body surface area (0.25×4). 15% affected Facial Surface Area (0.15) represents 0.6% total body surface area (0.15×4). The extent of depigmentation is expressed by the following percentages: 0, 10%, 25%, 50%, 75%, 90%, or 100%. At 100% depigmentation, no pigment is present; at 90%, specks of pigment are present; at 75%, the depigmented exceeded the pigmented area; at 50%, the depigmented and pigmented areas are equal; at 25%, the pigmented area exceeded the depigmented area; and at 10%, only specks of depigmentation are present. Scalp, neck, eyebrows, eyelashes, and vermilion are excluded from this calculation, although total VASI assessment includes all of these regions.

C=CC(=O)N1C[C@H](Nc2ncnc3[nH]ccc23)CC[C@@H]1C [Ritlecitinib, 1-[(2S,5R)-2-methyl-5-(7H-pyrrolo[2,3-d]pyrimidin-4-ylamino)-1-piperidinyl]-2-propen-1-one]
Efficacy criterion for the primary endpoint (% CFB in Central F-VASI at Week 24) (initial clinical studies): met the efficacy criterion for the primary endpoint | Placebo-adjusted LS mean CFB (SE); % CFB in Central F-VASI at Week 24 (treatment group 10 mg, 24-week treatment period): −4.13% | Placebo-adjusted LS mean CFB (SE); % CFB in Central F-VASI at Week 24 (treatment group 30 mg, 24-week treatment period): −16.93% | Placebo-adjusted LS mean CFB (SE); % CFB in Central F-VASI at Week 24 (treatment group 50 mg, 24-week treatment period): −22.05% | Placebo-adjusted LS mean CFB (SE); % CFB in Central F-VASI at Week 24 (treatment group 100/50 mg (induction 100 mg 4 weeks, maintenance 50 mg 20 weeks)): −22.99% | Placebo-adjusted LS mean CFB (SE); % CFB in Central F-VASI at Week 24 (treatment group 200/50 mg (induction 200 mg 4 weeks, maintenance 50 mg 20 weeks)): −23.62%
